Data taken from ChEMBL document CHEMBL1201862, “PubChem BioAssay data set” (2004).
Values belong to the molecule of their own block, whether it stands above or below them. Activity calls are given as the source filed them.

Assays:
[1] = biological target: T1, Leucine aminopeptidase (Plasmodium falciparum 3D7, UniProt Q8IL11); assay: P. falciparum M17LAP inhibitors, primary screen, biochemical, fluorogenic H-Leu-NHMec substrate, 1536-well (AID 1619); assay type: functional
T1 sequence (Q8IL11 whole entry): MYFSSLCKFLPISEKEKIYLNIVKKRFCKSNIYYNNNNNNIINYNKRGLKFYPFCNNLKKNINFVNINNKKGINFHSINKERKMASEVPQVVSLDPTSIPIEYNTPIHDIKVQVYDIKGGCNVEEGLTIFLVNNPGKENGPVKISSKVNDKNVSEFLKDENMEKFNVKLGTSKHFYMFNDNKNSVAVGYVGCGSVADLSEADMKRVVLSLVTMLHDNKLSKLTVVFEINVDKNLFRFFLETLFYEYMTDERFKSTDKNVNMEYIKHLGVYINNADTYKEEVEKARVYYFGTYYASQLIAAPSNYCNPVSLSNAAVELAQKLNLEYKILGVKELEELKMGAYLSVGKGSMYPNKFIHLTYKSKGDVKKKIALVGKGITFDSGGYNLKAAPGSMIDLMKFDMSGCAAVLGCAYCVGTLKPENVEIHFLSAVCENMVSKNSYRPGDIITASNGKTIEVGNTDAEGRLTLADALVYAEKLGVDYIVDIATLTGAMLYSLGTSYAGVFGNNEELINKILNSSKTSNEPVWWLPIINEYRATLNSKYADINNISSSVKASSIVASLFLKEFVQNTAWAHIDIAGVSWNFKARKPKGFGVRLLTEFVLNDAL

[2] = biological target: T2, Polyadenylate-binding protein 1 (Homo sapiens, UniProt P11940); assay: PABP1 MLLE–PAM2 interaction inhibitors, dose response, miRNA deadenylation inhibitor project, biochemical, fluorescence polarization, Cy5-PAM2 peptide, secondary (AID 602260); assay type: functional; conditions: read-out: IC50_Mean
T2 sequence (P11940 whole entry): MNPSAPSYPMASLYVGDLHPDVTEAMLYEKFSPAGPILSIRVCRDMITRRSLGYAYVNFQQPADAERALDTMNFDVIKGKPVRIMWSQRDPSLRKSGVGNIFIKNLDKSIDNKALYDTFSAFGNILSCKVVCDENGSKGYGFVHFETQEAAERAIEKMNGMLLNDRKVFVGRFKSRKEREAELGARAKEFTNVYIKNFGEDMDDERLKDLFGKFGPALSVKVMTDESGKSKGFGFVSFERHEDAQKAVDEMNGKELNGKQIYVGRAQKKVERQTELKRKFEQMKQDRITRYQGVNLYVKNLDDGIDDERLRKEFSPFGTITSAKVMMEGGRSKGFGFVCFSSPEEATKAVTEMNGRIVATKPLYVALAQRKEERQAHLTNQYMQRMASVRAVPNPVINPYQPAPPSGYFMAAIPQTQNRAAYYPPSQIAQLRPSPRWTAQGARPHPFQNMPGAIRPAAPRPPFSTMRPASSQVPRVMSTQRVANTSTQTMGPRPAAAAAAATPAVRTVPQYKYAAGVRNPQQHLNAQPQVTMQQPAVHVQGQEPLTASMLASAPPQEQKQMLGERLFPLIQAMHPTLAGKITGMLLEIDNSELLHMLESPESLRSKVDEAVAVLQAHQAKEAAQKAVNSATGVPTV

[3] = biological target: T2, Polyadenylate-binding protein 1; assay: PABP1 MLLE–PAM2 binding inhibitor potency, dose response, biochemical, fluorescence polarization, FITC-PAM2 peptide (AID 602259); assay type: functional; conditions: read-out: IC50_Mean
[4] = biological target: Genome polyprotein (dengue virus type 2, UniProt P29990); assay: Dengue-2 NS5 methyltransferase inhibitors, primary screen, biochemical, confirmation dose response (AID 588689); assay type: functional
Genome polyprotein, sequence (P29990 2492-3391 limits assumed): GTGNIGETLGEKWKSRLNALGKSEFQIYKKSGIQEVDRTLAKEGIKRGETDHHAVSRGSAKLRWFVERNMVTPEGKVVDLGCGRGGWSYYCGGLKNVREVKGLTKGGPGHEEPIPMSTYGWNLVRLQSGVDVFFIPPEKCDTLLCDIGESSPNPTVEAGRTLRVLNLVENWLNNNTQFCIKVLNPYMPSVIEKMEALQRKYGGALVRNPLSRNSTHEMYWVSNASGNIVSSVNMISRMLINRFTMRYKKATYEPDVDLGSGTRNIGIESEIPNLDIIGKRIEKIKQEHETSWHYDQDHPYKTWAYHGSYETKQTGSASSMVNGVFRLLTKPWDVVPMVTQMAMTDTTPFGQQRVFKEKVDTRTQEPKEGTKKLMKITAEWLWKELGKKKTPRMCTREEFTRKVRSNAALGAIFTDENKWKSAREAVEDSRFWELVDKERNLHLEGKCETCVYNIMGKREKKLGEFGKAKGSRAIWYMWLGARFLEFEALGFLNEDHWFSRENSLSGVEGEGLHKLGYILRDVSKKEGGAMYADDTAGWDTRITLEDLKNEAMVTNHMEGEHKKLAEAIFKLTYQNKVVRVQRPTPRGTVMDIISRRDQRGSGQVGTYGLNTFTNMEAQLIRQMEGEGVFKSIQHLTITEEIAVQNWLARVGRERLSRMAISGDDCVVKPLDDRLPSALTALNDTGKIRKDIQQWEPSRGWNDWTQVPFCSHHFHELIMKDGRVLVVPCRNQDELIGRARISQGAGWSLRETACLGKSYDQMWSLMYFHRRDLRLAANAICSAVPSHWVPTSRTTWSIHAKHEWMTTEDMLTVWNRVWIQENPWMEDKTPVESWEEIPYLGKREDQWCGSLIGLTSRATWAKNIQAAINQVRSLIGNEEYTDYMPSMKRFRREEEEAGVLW

[5] = biological target: T3, Fatty acid synthase (Homo sapiens, UniProt P49327); assay: FAS thioesterase domain inhibitors, dose response, biochemical, endpoint fluorescence intensity, uHTS hits (AID 624327); assay type: functional;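 also: fluorescence from hydrolysis of an O-methyl fluorescein acyl ester substrate by the enzyme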
T3 sequence (P49327 whole entry, the tested form may be a part): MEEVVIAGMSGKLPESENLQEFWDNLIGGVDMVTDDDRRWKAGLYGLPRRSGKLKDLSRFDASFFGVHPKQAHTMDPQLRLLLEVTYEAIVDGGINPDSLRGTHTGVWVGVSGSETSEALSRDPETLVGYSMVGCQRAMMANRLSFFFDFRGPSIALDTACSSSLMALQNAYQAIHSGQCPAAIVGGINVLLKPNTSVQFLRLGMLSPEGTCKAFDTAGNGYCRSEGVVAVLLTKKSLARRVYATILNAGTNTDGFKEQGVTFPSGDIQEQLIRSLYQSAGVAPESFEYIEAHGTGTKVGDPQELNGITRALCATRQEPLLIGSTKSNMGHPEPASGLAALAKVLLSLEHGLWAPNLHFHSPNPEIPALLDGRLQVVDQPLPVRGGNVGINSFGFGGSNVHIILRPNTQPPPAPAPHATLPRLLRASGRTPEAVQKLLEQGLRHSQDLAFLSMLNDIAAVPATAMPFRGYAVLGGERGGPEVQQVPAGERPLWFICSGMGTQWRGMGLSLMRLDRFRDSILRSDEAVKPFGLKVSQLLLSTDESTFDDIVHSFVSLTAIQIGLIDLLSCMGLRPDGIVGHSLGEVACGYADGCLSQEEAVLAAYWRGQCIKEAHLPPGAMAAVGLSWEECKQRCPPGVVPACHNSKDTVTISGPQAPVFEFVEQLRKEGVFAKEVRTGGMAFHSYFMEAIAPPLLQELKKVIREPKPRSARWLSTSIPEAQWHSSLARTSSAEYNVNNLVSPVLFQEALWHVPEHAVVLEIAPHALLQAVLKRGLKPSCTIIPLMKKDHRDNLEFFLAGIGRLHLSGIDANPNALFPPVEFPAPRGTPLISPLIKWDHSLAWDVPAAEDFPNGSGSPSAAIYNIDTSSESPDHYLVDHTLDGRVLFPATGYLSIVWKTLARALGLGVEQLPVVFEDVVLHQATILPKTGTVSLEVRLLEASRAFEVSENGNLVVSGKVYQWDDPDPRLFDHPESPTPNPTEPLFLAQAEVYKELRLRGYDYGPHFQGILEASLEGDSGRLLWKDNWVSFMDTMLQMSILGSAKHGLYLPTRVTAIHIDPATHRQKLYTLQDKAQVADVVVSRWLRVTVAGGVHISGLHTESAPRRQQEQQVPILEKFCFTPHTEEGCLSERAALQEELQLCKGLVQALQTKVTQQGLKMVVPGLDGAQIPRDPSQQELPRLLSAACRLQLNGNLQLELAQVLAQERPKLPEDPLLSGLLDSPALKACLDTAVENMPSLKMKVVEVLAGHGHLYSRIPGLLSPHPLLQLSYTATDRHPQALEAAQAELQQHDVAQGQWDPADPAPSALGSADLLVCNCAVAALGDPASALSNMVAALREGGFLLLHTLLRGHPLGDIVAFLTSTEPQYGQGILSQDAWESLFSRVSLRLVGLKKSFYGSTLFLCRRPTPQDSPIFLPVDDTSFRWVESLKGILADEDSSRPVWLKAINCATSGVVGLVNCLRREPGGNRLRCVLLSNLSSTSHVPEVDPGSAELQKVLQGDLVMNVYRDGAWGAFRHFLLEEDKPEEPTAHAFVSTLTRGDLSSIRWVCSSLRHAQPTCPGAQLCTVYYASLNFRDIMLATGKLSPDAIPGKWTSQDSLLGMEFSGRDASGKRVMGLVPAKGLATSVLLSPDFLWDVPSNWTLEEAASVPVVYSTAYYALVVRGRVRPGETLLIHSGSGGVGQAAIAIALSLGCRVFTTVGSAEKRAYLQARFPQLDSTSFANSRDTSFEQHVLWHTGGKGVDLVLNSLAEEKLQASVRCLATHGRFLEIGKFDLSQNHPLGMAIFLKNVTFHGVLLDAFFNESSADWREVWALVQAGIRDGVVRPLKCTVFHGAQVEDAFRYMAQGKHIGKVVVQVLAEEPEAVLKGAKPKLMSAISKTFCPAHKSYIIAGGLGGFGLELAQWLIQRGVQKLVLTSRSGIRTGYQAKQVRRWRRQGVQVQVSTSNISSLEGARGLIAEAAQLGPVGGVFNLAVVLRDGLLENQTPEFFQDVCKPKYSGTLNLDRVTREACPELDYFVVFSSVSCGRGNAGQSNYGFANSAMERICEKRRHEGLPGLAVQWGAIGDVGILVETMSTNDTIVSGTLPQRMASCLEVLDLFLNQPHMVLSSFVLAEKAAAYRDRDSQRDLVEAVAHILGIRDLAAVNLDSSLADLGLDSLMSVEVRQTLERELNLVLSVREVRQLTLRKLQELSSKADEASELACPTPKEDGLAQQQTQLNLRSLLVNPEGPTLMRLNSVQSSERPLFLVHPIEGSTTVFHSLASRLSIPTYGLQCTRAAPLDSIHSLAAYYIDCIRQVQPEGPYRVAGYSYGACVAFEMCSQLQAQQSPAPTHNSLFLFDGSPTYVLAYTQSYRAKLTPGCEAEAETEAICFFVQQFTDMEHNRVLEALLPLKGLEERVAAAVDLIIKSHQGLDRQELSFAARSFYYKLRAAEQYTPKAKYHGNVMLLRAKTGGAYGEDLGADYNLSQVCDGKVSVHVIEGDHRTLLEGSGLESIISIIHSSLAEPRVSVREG

[6] = biological target: T3, Fatty acid synthase; assay: FAS thioesterase domain inhibitors, dose response, biochemical, kinetic fluorescence intensity (AID 624326); assay type: functional;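 also: rate of fluorescence rise from hydrolysis of a fluorogenic O-methyl fluorescein ester substrate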
[7] = biological target: T4, Corticotropin-releasing factor receptor 2/Corticotropin-releasing factor-binding protein (Homo sapiens, UniProt P24387+Q13324); assay: Dose Response confirmation of uHTS hits for small molecule antagonists of the CRF-binding protein and CRF-R2 receptor complex.; assay type: functional; conditions: read-out: IC50_Mean
T4 sequence (Q13324 whole entry): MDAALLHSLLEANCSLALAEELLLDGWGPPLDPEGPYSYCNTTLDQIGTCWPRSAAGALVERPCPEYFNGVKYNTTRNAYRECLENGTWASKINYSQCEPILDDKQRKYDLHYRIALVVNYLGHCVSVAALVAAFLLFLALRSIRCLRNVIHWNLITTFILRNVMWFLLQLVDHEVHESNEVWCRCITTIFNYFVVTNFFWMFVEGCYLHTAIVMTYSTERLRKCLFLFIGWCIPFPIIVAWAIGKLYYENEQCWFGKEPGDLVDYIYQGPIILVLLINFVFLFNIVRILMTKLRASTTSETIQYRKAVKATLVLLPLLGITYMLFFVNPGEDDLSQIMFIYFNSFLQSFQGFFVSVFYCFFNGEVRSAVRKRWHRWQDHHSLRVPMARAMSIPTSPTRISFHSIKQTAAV
T4 sequence (P24387 whole entry): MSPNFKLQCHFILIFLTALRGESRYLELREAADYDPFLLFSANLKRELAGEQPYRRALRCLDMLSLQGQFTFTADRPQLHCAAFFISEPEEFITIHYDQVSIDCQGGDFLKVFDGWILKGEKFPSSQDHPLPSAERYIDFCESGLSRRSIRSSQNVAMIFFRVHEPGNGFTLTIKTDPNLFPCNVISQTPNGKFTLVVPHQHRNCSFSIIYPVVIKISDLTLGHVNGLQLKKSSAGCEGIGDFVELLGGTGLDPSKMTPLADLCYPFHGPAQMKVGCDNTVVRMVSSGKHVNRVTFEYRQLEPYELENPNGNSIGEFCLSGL

[8] = biological target: T4, Corticotropin-releasing factor receptor 2/Corticotropin-releasing factor-binding protein; assay: activators of CRF receptor 2 with binding protein – uHTS hits, confirmation (AID 602473); assay type: functional; conditions: read-out: EC50_Mean
[9] = Shn3 3'UTR reporter inhibitors, dose response, cell-based, Clone20 osteoblasts, firefly luciferase, cherry-picked (AID 624132); assay type: functional;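 also: firefly luciferase luminescence from reporter carrying the Shn3 3'UTR in osteoblasts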
[10] = control 3'UTR Renilla luciferase suppression, dose response, counter-screen for Shn3 inhibitor project, cell-based, Clone20-Shn3RL, cherry-picked (AID 624133); assay type: functional
[11] = biological target: T5, Carboxy-terminal domain RNA polymerase II polypeptide A small phosphatase 1 (Homo sapiens, UniProt Q9GZU7); assay: inhibitors of CTDSP1, concentration-response testing, biochemical assay, absorbance-based, actives from ultra-high-throughput screening (AID 540297); assay type: functional
T5 sequence (Q9GZU7 whole entry): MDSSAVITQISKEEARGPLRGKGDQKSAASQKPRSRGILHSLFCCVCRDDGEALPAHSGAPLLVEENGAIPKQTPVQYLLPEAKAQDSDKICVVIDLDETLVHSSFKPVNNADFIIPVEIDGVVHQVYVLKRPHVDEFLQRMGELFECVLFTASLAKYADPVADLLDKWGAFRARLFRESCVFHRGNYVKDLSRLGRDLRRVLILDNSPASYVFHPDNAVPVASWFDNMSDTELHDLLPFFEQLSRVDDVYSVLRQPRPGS

[12] = inhibitors of clade B AD8 Env fusion, dose response, cell-based, cherry-pick (AID 652062); assay type: functional;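 also: luciferase signal from cell-cell fusion driven by HIV-1 clade B AD8 Env; potency is for inhibitors of fusion seen as a drop in luminescence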
[13] = biological target: Paired box protein Pax-8 (Homo sapiens, UniProt Q06710); assay: inhibitors of PAX8-driven TPO luciferase reporter, dose response, RMG-I cells, cherry-pick (AID 687027); assay type: functional, cell-based;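 also: luciferase reporter driven by Pax8 target thyroperoxidase promoter measured by SteadyGlo luminescence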
Paired box protein Pax-8, sequence (Q06710 whole entry): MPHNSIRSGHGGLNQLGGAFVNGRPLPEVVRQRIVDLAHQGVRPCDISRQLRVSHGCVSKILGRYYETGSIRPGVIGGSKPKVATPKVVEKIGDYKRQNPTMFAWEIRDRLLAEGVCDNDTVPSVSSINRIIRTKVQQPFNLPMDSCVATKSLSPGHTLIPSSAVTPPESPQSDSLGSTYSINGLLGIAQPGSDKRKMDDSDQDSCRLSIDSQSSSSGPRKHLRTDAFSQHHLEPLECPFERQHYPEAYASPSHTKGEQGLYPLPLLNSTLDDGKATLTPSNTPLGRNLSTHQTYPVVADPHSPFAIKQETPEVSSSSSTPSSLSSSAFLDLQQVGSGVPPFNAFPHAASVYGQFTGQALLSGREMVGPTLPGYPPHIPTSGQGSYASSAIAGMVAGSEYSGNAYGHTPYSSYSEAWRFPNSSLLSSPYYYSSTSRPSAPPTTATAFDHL

[14] = NIH:OVCAR-3 ovarian cancer cell cytotoxicity, dose response, PAX8 inhibitor project, plate reader, dry powder samples (AID 743044); assay type: functional, cell-based

Compound: CC(C)C(=O)Nc1nnc(SCC(=O)Nc2ccc3c(c2)OCCO3)s1
IC50 [1]: 18.9 µM (active)

Compound: Cc1ccccc1NC(=O)CSc1nnc(C)c(O)n1
IC50 [2]: > 66 µM (inactive)
IC50 [3]: > 66 µM (inactive)

Compound: COc1ccc(/C=C(/NC(=O)c2ccc([N+](=O)[O-])cc2)C(=O)NC(C)(C)C)cc1
IC50 [5]: 3.45 µM (active)
IC50 [6]: 2.56 µM (active)

Compound: Cc1cc(C)n2cc(CSc3nnc(N)s3)nc2n1
IC50 [2]: > 66 µM (inactive)
IC50 [3]: > 66 µM (inactive)

Compound: C#CCOc1ccc(/C=C2/C(=O)ON=C2C)cc1Cl
IC50 [4]: 97.1 µM (active)

Compound: O=C1NC(=S)N/C1=C/C=C/c1ccccc1
IC50 [4]: 99.8 µM (active)

Compound: CN(C)c1nc2n(c(=O)n1)C(C#N)CS2 (configuration not stated)
IC50 [2]: > 66 µM (inactive)
IC50 [3]: > 66 µM (inactive)

Compound: O=C(O)c1ccc2c(c1)NC(=O)C(N1CCCC1)S2 (configuration not stated)
IC50 [2]: > 66 µM (inactive)
IC50 [3]: 55.5 µM (inactive)

Compound: COc1ccc(C(=O)N/C(=C\c2cn(S(=O)(=O)N(C)C)c3ccccc23)C(=O)NCCCN2CCOCC2)cc1
IC50 [5]: 8.48 µM (active)
IC50 [6]: 7.83 µM (active)

Compound: CN1C[C@H](C(=O)N[C@]2(C)O[C@@]3(O)[C@@H]4CCCN4C(=O)[C@H](Cc4ccccc4)N3C2=O)CC2c3cccc4[nH]cc(c34)C[C@H]21 (some centres not stated)
IC50 [5]: 10.4 µM (active)
IC50 [6]: 8.09 µM (active)

Compound: CCCCCCn1c(=O)c(F)cn(Cc2ccc(OC)c([N+](=O)[O-])c2)c1=O
IC50 [7]: > 47.1 µM (inactive)
EC50 [8]: > 53 µM (inactive)
IC50 [5]: 10.2 µM (active)
IC50 [6]: 11.3 µM (active)

Compound: CCOC(=O)c1sc(=S)n(-c2ccc3c(c2)OCO3)c1N
IC50 [2]: > 66 µM (inactive)
IC50 [3]: > 66 µM (inactive)

Compound: CCN(c1ccccc1)S(=O)(=O)c1ccc(Cl)c(NC(=O)CN(C)Cc2cccc(F)c2)c1
AC50 [9]: 8.78 µM (active)
AC50 [10]: 6.46 µM (active)

Compound: CCc1cccc(CC)c1NC(=O)CSc1nnc(CCC(=O)O)c(O)n1
IC50 [2]: > 66 µM (inactive)
IC50 [3]: > 66 µM (inactive)

Compound: CC(=O)NS(=O)(=O)c1ccc(/N=c2\ssc3c2-c2cc(C)c(C)cc2NC3(C)C)cc1
IC50 [1]: 3.72 µM (active)

Compound: O=C1COc2ccc(-c3cs/c(=N\c4ccc(OC(F)F)cc4)n3CC3CCCO3)cc2N1 (configuration not stated)
AC50 [12]: 18.6 µM (active)

Compound: C[C@@H]1CN([C@H](C)CO)C(=O)c2cc(NC(=O)Nc3ccc(F)cc3)ccc2O[C@@H](C)CCCCO[C@H]1CN(C)S(=O)(=O)c1ccccc1
AC50 [13]: 4.82 µM (active)
AC50 [14]: 35.3 µM (active)

Compound: CN(C)c1ccc(/C=N/NC(=O)c2nonc2N)cc1[N+](=O)[O-]
IC50 [1]: 56.1 µM (active)

Compound: CCC(C)CCCCCCCCCCC(=O)O (configuration not stated)
IC50 [4]: 42 µM (active)

Next, values leading:

IC50 [4]: 43.2 µM (active)
Compound: O=C1Nc2ccc(Cl)cc2C12Nc1ccccc1-c1nnc(SCc3ccccc3F)nc1O2 (configuration not stated)

IC50 [1]: 15.7 µM (active)
Compound: O=C(O)CC(Cc1ccccc1)C(=O)Nc1ccc([N+](=O)[O-])cc1 (configuration not stated)

IC50 [2]: > 66 µM (inactive)
IC50 [3]: > 66 µM (inactive)
Compound: COc1ccccc1-n1cc(-c2ccc([N+](=O)[O-])cc2)nc1S

IC50 [5]: 17.2 µM (active)
IC50 [6]: 8.19 µM (active)
Compound: O=C(NC(=S)Nc1ccccc1)c1cc([N+](=O)[O-])ccc1N1CCOCC1

IC50 [2]: > 66 µM (inactive)
IC50 [3]: 44.9 µM (inactive)
Compound: O=C(COC(=O)CCc1c[nH]c(O)n1)Nc1ccccc1

IC50 [1]: 1.47 µM (active)
Compound: N#Cc1c(NC(=O)Cn2cnc3ccccc3c2=O)oc(-c2ccccc2)c1-c1ccccc1

IC50 [1]: 2.92 µM (active)
Compound: CCOc1ccc(NC(=O)Cc2ccccc2)c([N+](=O)[O-])c1

IC50 [1]: 15.6 µM (active)
Compound: O=C(CN1C(=O)c2ccccc2C1=O)NCC1COc2ccccc2O1 (configuration not stated)

IC50 [5]: 12.8 µM (active)
IC50 [6]: 11.2 µM (active)
Compound: O=C(Nn1c(C2CCCCC2)nc2ccccc2c1=O)c1ccc(Cl)c([N+](=O)[O-])c1

IC50 [4]: 42.5 µM (active)
Compound: Cc1ccc([C@@H]2CC=C(C(=O)O)[C@H](c3ccc(Br)cc3)N2S(=O)(=O)c2ccc(C)cc2)cc1

IC50 [5]: 4.45 µM (active)
IC50 [6]: 5.81 µM (active)
Compound: N#Cc1c(C(F)(F)F)cc(-c2cccs2)nc1SC(C(=O)O)c1ccccc1 (configuration not stated)

IC50 [11]: 4.14 µM (active)
Compound: Cc1cccc(C(=O)Oc2ccc(/C=N/NC(=O)c3cc(O)cc(O)c3)cc2)c1

IC50 [5]: 5.47 µM (active)
IC50 [6]: 7.78 µM (active)
Compound: CC(C)(C)c1ccc(C(=O)N2CCC2(C)C(=O)Nc2cccc(C#N)c2)cc1 (configuration not stated)
